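48-hour exposure; five concentrations; linearly interpolated endpoints. The concentration for 50% growth inhibition is given as GI50. Definition used: TGI = concentration required for complete inhibition of growth.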
How the values were obtained:
Test in all cases: growth of human tumour cells (NCI), 48 h
SR leukemia = system: SR leukemia
OVCAR-3 ovarian = system: OVCAR-3 ovarian
UACC-257 melanoma = system: UACC-257 melanoma
SK-MEL-5 melanoma = system: SK-MEL-5 melanoma
CCRF-CEM leukemia = system: CCRF-CEM leukemia
SK-OV-3 ovarian = system: SK-OV-3 ovarian
UO-31 renal = system: UO-31 renal
A549 NSCLC = system: A549 NSCLC
ACHN renal = system: ACHN renal
COLO 205 colon = system: COLO 205 colon
MDA-MB-435 = system: MDA-MB-435
K-562 leukemia = system: K-562 leukemia
SF-295 CNS = system: SF-295 CNS
OVCAR-4 ovarian = system: OVCAR-4 ovarian
M14 melanoma = system: M14 melanoma
MDA-MB-468 breast = system: MDA-MB-468 breast
HOP-92 NSCLC = system: HOP-92 NSCLC
CAKI-1 renal = system: CAKI-1 renal
BT-549 breast = system: BT-549 breast
U251 CNS = system: U251 CNS
DU-145 prostate = system: DU-145 prostate
MDA-MB-231 breast = system: MDA-MB-231 breast
NCI-H226 lung = system: NCI-H226 lung
NCI-H522 lung = system: NCI-H522 lung
UACC-62 melanoma = system: UACC-62 melanoma
NCI-H23 lung = system: NCI-H23 lung
SF-268 CNS = system: SF-268 CNS
HS 578T breast = system: HS 578T breast
SW-620 colon = system: SW-620 colon

**Q.** Which TGI (SR leukemia) does the source give for `Cc1ccc(-c2ccc(SCC(=O)Nc3ccc(Cl)c(C(F)(F)F)c3)nn2)cc1` here?
**A.** > 100 µM

**Q.** And the GI50 (OVCAR-3 ovarian)?
**A.** 0.409 µM

**Q.** And the TGI (OVCAR-3 ovarian)?
**A.** 1.94 µM

**Q.** And the GI50 (UACC-257 melanoma)?
**A.** 12.1 µM

**Q.** What about the TGI (UACC-257 melanoma) of the same compound?
**A.** > 100 µM

**Q.** And the GI50 (SK-MEL-5 melanoma)?
**A.** 0.435 µM

**Q.** And the TGI (SK-MEL-5 melanoma)?
**A.** 8.76 µM

**Q.** What about the GI50 (CCRF-CEM leukemia) of the same compound?
**A.** 0.459 µM

**Q.** What about the TGI (CCRF-CEM leukemia) of the same compound?
**A.** > 100 µM

**Q.** And the GI50 (SK-OV-3 ovarian)?
**A.** 3.82 µM

**Q.** What about the TGI (SK-OV-3 ovarian) of the same compound?
**A.** 65.3 µM

**Q.** And the GI50 (UO-31 renal)?
**A.** 3.16 µM

**Q.** What about the TGI (UO-31 renal) of the same compound?
**A.** > 100 µM

**Q.** What about the GI50 (A549 NSCLC) of the same compound?
**A.** 5.34 µM

**Q.** And the TGI (A549 NSCLC)?
**A.** > 100 µM

**Q.** What about the GI50 (ACHN renal) of the same compound?
**A.** 6.84 µM

**Q.** What about the TGI (ACHN renal) of the same compound?
**A.** > 100 µM

**Q.** What about the GI50 (COLO 205 colon) of the same compound?
**A.** 1.06 µM

**Q.** And the TGI (COLO 205 colon)?
**A.** 3.51 µM

**Q.** What about the GI50 (MDA-MB-435) of the same compound?
**A.** 0.22 µM

**Q.** And the TGI (MDA-MB-435)?
**A.** 0.513 µM

**Q.** What about the GI50 (K-562 leukemia) of the same compound?
**A.** 0.419 µM

**Q.** What about the TGI (K-562 leukemia) of the same compound?
**A.** > 100 µM

**Q.** What about the GI50 (SF-295 CNS) of the same compound?
**A.** 0.5 µM

**Q.** And the TGI (SF-295 CNS)?
**A.** 8.22 µM

**Q.** What about the GI50 (OVCAR-4 ovarian) of the same compound?
**A.** 5.86 µM

**Q.** And the TGI (OVCAR-4 ovarian)?
**A.** > 100 µM

**Q.** What about the GI50 (M14 melanoma) of the same compound?
**A.** 0.538 µM

**Q.** What about the TGI (M14 melanoma) of the same compound?
**A.** > 100 µM

**Q.** What about the GI50 (MDA-MB-468 breast) of the same compound?
**A.** 0.371 µM

**Q.** And the TGI (MDA-MB-468 breast)?
**A.** 2.25 µM

**Q.** What about the GI50 (HOP-92 NSCLC) of the same compound?
**A.** 2.95 µM

**Q.** What about the TGI (HOP-92 NSCLC) of the same compound?
**A.** 59.5 µM

**Q.** What about the GI50 (CAKI-1 renal) of the same compound?
**A.** 1.72 µM

**Q.** What about the TGI (CAKI-1 renal) of the same compound?
**A.** > 100 µM

**Q.** What about the GI50 (BT-549 breast) of the same compound?
**A.** 0.829 µM

**Q.** What about the TGI (BT-549 breast) of the same compound?
**A.** 46.2 µM

**Q.** And the GI50 (U251 CNS)?
**A.** 1.47 µM

**Q.** And the TGI (U251 CNS)?
**A.** 38.5 µM

**Q.** And the GI50 (DU-145 prostate)?
**A.** 2.37 µM

**Q.** And the TGI (DU-145 prostate)?
**A.** 17.9 µM

**Q.** And the GI50 (MDA-MB-231 breast)?
**A.** 1.15 µM

**Q.** What about the TGI (MDA-MB-231 breast) of the same compound?
**A.** 19.3 µM

**Q.** What about the GI50 (NCI-H226 lung) of the same compound?
**A.** 8.36 µM

**Q.** What about the TGI (NCI-H226 lung) of the same compound?
**A.** > 100 µM

**Q.** What about the GI50 (NCI-H522 lung) of the same compound?
**A.** 0.528 µM

**Q.** What about the TGI (NCI-H522 lung) of the same compound?
**A.** 4 µM

**Q.** What about the GI50 (UACC-62 melanoma) of the same compound?
**A.** 0.531 µM

**Q.** What about the TGI (UACC-62 melanoma) of the same compound?
**A.** 39.4 µM

**Q.** And the GI50 (NCI-H23 lung)?
**A.** 2 µM

**Q.** What about the TGI (NCI-H23 lung) of the same compound?
**A.** 32.7 µM

**Q.** What about the GI50 (SF-268 CNS) of the same compound?
**A.** 9.67 µM

**Q.** What about the TGI (SF-268 CNS) of the same compound?
**A.** > 100 µM

**Q.** What about the GI50 (HS 578T breast) of the same compound?
**A.** 1.05 µM

**Q.** What about the TGI (HS 578T breast) of the same compound?
**A.** 8.14 µM

**Q.** And the GI50 (SW-620 colon)?
**A.** 0.393 µM

**Q.** And the TGI (SW-620 colon)?
**A.** > 100 µM
